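Test compounds were applied to cells in 96-well plates for 48 hours at 5 doses. GI50 marks 50% less growth. TGI: concentration producing complete growth inhibition.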
How the values were obtained:
Assay in all cases: DTP human tumour cell line panel, 48 h
NCI-H23 lung = system: NCI-H23 lung
RXF 393 renal = system: RXF 393 renal
SN12C renal = system: SN12C renal
A549 NSCLC = system: A549 NSCLC
786-0 renal = system: 786-0 renal
UACC-257 melanoma = system: UACC-257 melanoma
COLO 205 colon = system: COLO 205 colon
HCC-2998 colon = system: HCC-2998 colon
OVCAR-4 ovarian = system: OVCAR-4 ovarian
SF-539 CNS = system: SF-539 CNS

Row | Compound | TGI (NCI-H23 lung) [µM] | TGI (RXF 393 renal) [µM] | TGI (SN12C renal) [µM] | TGI (A549 NSCLC) [µM] | TGI (786-0 renal) [µM] | TGI (UACC-257 melanoma) [µM] | TGI (COLO 205 colon) [µM] | TGI (HCC-2998 colon) [µM] | TGI (OVCAR-4 ovarian) [µM] | TGI (SF-539 CNS) [µM] | GI50 (NCI-H23 lung) [µM] | GI50 (RXF 393 renal) [µM] | GI50 (OVCAR-4 ovarian) [µM] | GI50 (SN12C renal) [µM] | GI50 (A549 NSCLC) [µM] | GI50 (SF-539 CNS) [µM] | GI50 (UACC-257 melanoma) [µM] | GI50 (COLO 205 colon) [µM] | GI50 (HCC-2998 colon) [µM]
1 | NC(=O)c1nnsc1NC=O | > 100 | > 100 | > 100 | > 100 | > 100 | > 100 | > 100 | > 100 | – | – | – | – | – | – | – | – | – | – | –
2 | CC1CCc2sc3[nH]c(=S)n(-c4ccccc4)c(=O)c3c2C1 (stereo not drawn) | > 100 | > 100 | > 100 | > 100 | > 100 | > 100 | > 100 | 67.8 | > 100 | – | – | – | – | – | – | – | – | – | –
3 | CCN(CC)C(=O)N1CN(c2ccccc2)C2(CCN(CCCSc3ccc(F)cc3)CC2)C1=O | 22.4 | 29.7 | 39.8 | > 100 | 25.4 | 12.8 | – | – | > 100 | 20.7 | – | – | – | – | – | – | – | – | –
4 | Cc1ccc(S(=O)(=O)NC(=O)NC(Cc2ccc(O)c(O)c2)C(=O)O)cc1 (stereo not drawn) | > 100 | > 100 | > 100 | > 100 | 34.6 | > 100 | > 100 | – | > 100 | – | – | – | – | – | – | – | – | – | –
5 | COC(=O)[C@H](Cc1ccccc1)NP(=O)(O)OCC1C=CC(n2cc(C)c(=O)[nH]c2=O)O1 (stereo partly drawn) | > 100 | > 100 | > 100 | > 100 | > 100 | > 100 | > 100 | > 100 | > 100 | – | – | – | – | – | – | – | – | – | –
6 | O=C1CCCC2=C1CC1=C(CCCC1=O)N2c1ccccc1 | > 100 | > 100 | > 100 | > 100 | > 100 | – | – | > 100 | > 100 | > 100 | – | – | – | – | – | – | – | – | –
7 | COc1ccc(/C=N/NC(=O)c2cnc3[nH]c(=O)n(C)c(=O)c3c2)cc1 | > 100 | > 100 | > 100 | > 100 | > 100 | > 100 | > 100 | > 100 | > 100 | – | – | – | – | – | – | – | – | – | –
8 | CC[C@@]12C=CC(=S)N(CCSc3ccccc3)[C@@H]1c1c(n(S(=O)(=O)c3ccc(OC)cc3)c3ccccc13)CC2 | > 100 | > 100 | > 100 | > 100 | > 100 | > 100 | > 100 | > 100 | – | > 100 | – | – | – | – | – | – | – | – | –
9 | CCN1CCC(O)(c2ccc(Oc3ccc(C)cc3)cc2)C(C(=O)c2ccc(Oc3ccc(C)cc3)cc2)C1 (stereo not drawn) | 30.2 | 16.2 | 30.7 | 26.8 | 17.2 | 26.7 | 26.1 | 20.8 | 17.3 | – | – | – | – | – | – | – | – | – | –
10 | COc1ccc(-c2cc(-c3cc(F)c(Cl)cc3Cl)on2)cc1OC | > 100 | 46.6 | > 100 | > 100 | > 100 | > 100 | 92.3 | – | > 100 | 27 | – | – | – | – | – | – | – | – | –
11 | O=C1C(NCCN2CCOCC2)=C(Cl)C(=O)c2ncccc21 | 2.73 | 1.4 | 2.74 | 3.36 | 1.6 | – | – | 1.94 | – | 2.53 | – | – | – | – | – | – | – | – | –
12 | C#CCn1c(=O)c(Cl)cn(/C(=C/C(=O)OCC)C(=O)OCC)c1=O | 42.6 | 4.18 | 50.6 | > 62.8 | 3.83 | 33.3 | 2.5 | – | 38.8 | 12.7 | – | – | – | – | – | – | – | – | –
13 | CCN(CC)CCCOc1cc2c(cc1OC)C(=O)N1CCC[C@H]1C=N2 | – | 60 | > 100 | > 100 | > 100 | > 100 | 38.6 | – | > 100 | > 100 | – | – | – | – | – | – | – | – | –
14 | c1ccc(C(CCN2CC3CCC(CC3)C2)c2ccccc2)cc1 | 36.1 | 37.9 | 84.7 | > 100 | 36.1 | 31.9 | 25.1 | – | > 100 | 29.5 | – | – | – | – | – | – | – | – | –
15 | CC(=O)OCC1=C(C)C[C@H]([C@@H](COC(C)=O)C2CCC3C4C[C@H]5O[C@]56CC=CC(=O)[C@]6(C)C4CC[C@@]32C)OC1=O (stereo partly drawn) | 3.59 | 1.12 | 1.18 | 7.12 | 1.58 | 2.99 | 1 | 1.2 | 9.9 | – | – | – | – | – | – | – | – | – | –
16 | c1ccc2c(c1)CC1COc3ccccc3C1O2 (stereo not drawn) | > 100 | – | > 100 | > 100 | > 100 | > 100 | > 100 | > 100 | – | > 100 | – | – | – | – | – | – | – | – | –
17 | Cc1nc2ccccc2n1Cc1nnc(N)o1 | > 100 | > 100 | > 100 | > 100 | > 100 | > 100 | > 100 | > 100 | – | > 100 | – | – | – | – | – | – | – | – | –

Row | Compound | TGI (NCI-H23 lung) [µM] | TGI (RXF 393 renal) [µM] | TGI (SN12C renal) [µM] | TGI (A549 NSCLC) [µM] | TGI (786-0 renal) [µM] | TGI (UACC-257 melanoma) [µM] | TGI (COLO 205 colon) [µM] | TGI (HCC-2998 colon) [µM] | TGI (OVCAR-4 ovarian) [µM] | TGI (SF-539 CNS) [µM] | GI50 (NCI-H23 lung) [µM] | GI50 (RXF 393 renal) [µM] | GI50 (OVCAR-4 ovarian) [µM] | GI50 (SN12C renal) [µM] | GI50 (A549 NSCLC) [µM] | GI50 (SF-539 CNS) [µM] | GI50 (UACC-257 melanoma) [µM] | GI50 (COLO 205 colon) [µM] | GI50 (HCC-2998 colon) [µM]
18 | c1ccc2nc(CCC3CCCCN3)ccc2c1 (stereo not drawn) | > 100 | > 100 | > 100 | > 100 | > 100 | > 100 | 31.5 | > 100 | > 100 | – | – | – | – | – | – | – | – | – | –
19 | C#CC(O)/C=C/C(O)CCCC(O)CC#CC(O)C#CC(O)CCCC(O)/C=C/CCCC(=O)CCCCCCCCCCCCCCCC(O)C(O)C#CC(=O)O (stereo not drawn) | > 50 | > 50 | > 50 | > 50 | > 50 | > 50 | > 50 | > 50 | 28.2 | – | – | – | – | – | – | – | – | – | –
20 | c1ccc(N=C2SC3=NCCN3C2=Nc2ccccc2)cc1 | 52.9 | 32.2 | 70 | – | – | – | 33.3 | 52.4 | – | – | – | – | – | – | – | – | – | – | –
21 | CC1C(=O)O[C@H]2C1CC[C@@]1(C)[C@H](O)CC[C@@]13C[C@]2(O)OO3 (stereo partly drawn) | > 100 | – | > 100 | > 100 | > 100 | > 100 | > 100 | > 100 | > 100 | – | – | – | – | – | – | – | – | – | –
22 | CCOP(=O)(OCC)C1=NC=CC=CC1n1c(-c2ccccc2)nn(CC)c1=O (stereo not drawn) | > 100 | > 100 | > 100 | > 100 | > 100 | > 100 | > 100 | > 100 | – | > 100 | – | – | – | – | – | – | – | – | –
23 | O=C(OCCC12CC3CC(CC(C3)C1)C2)c1ccc(NCc2cc(O)ccc2O)cc1 | 3.28 | 4.9 | 11.2 | 15.7 | 4.73 | 2.38 | 1.2 | – | 3.17 | 2.08 | – | – | – | – | – | – | – | – | –
24 | CC(NC(C#N)CC12CC3CC(CC(C3)C1)C2)c1ccccc1 (stereo not drawn) | – | – | – | > 100 | – | > 100 | > 100 | > 100 | – | – | – | – | – | – | – | – | – | – | –
25 | CC1(CC2=C(C(=O)NCCO[Si](C)(C)C(C)(C)C)C3(OCCO3)C2=O)OCCO1 | > 100 | – | > 100 | > 100 | > 100 | > 100 | > 100 | – | > 100 | > 100 | – | – | – | – | – | – | – | – | –
26 | CC(Cc1ccccc1)NC1=NCCO1 (stereo not drawn) | 51 | > 100 | 53.3 | > 100 | – | – | 34.5 | 71 | > 100 | 30.3 | – | – | – | – | – | – | – | – | –
27 | CC(=O)O[C@H]1C[C@H]2C(=S)Nc3ccccc3C(=S)N2C1 | > 100 | > 100 | > 100 | > 100 | > 100 | > 100 | > 100 | > 100 | > 100 | – | – | – | – | – | – | – | – | – | –
28 | COC(=O)c1ccccc1C1CN=NC12Cc1cccc(C)c1C2=O (stereo not drawn) | > 100 | > 100 | > 100 | > 100 | > 100 | > 100 | – | > 100 | > 100 | > 100 | – | – | – | – | – | – | – | – | –
29 | Nn1c(Cc2ccccc2)n[nH]c1=O | > 100 | – | > 100 | > 100 | > 100 | > 100 | > 100 | > 100 | > 100 | > 100 | – | – | – | – | – | – | – | – | –
30 | Oc1cccc(-c2cn3cc(C(F)(F)F)ccc3n2)c1 | > 100 | 50.2 | > 100 | > 100 | > 100 | 65.3 | > 100 | 54 | > 100 | – | – | – | – | – | – | – | – | – | –
31 | C=C1C(=O)O[C@@H]2[C@H](O)[C@@H](C)[C@@H]3C=CC(=O)[C@@]3(C)[C@H](OC(=O)C=C(C)C)[C@H]12 | 2.88 | 1.33 | 2.27 | 10 | – | 4.74 | 1.67 | 3.23 | 4.92 | 0.596 | – | – | – | – | – | – | – | – | –
32 | Oc1ccc(C#CCOc2ccccc2)cc1CNCCN(Cc1ccccn1)Cc1ccccn1 | 5.51 | 2.96 | 2.65 | 3.47 | – | 6.83 | 9.74 | 3.36 | 3.71 | 3.09 | 1.83 | 1.49 | 1.29 | 1.08 | 1.33 | 1.6 | 2.55 | 2.8 | 1.65
33 | O=[N+]([O-])c1ccc2c(c1)c(S(=O)(=O)O)cc1nonc12 | > 100 | – | > 100 | > 100 | > 100 | > 100 | > 100 | – | > 100 | > 100 | – | – | – | – | – | – | – | – | –
34 | O=C(OCc1ccccc1)N1CCN(C(=O)OCc2ccccc2)CCN(C(=O)OCc2ccccc2)CCN(C(=O)OCc2ccccc2)CCN(C(=O)OCc2ccccc2)CC1 | – | – | > 100 | > 100 | 48.4 | 73.1 | > 100 | > 100 | > 100 | > 100 | – | – | – | – | – | – | – | – | –

Reference: PubChem BioAssay (NCI)
